{"source": "patent US6329550A", "about": "“Amidomalonamides useful as inhibitors of MMP of matrix metalloproteinase” (Aventis Pharmaceuticals Inc., priority 1999, dated 2001)", "origin": "cited, not measured here", "tested_on": "B16-BL6 murine melanoma", "conditions": "intraperitoneal administration; lung colonies produced by intravenous injection of B16-BL6 murine melanoma in C57BL/6N mice"}
{"smiles": "CNC(=O)[C@H](Cc1ccccc1)NC(=O)[C@H](CC(C)C)[C@H](CSc1cccs1)C(=O)NO", "note": "[batimastat]", "values": [{"measurement": "growth and metastatic spread and number of lung colonies", "result": "significant inhibition"}]}
